PubChem BioAssay (NCI)
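Compound exposure: 48 hours, 5 concentrations, 96-well plates. At the GI50, growth is halved. Definition used: TGI = concentration required for complete inhibition of growth.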

What was measured:
Assay in all cases: inhibition of tumour cell growth, NCI panel, 48 h
[1] = test system: IGROV1 ovarian
[2] = test system: U251 CNS
[3] = test system: SK-OV-3 ovarian
[4] = test system: CCRF-CEM leukemia
[5] = test system: PC-3 prostate
[6] = test system: NCI-H226 lung
[7] = test system: A498 renal
[8] = test system: HT29 colon
[9] = test system: T-47D breast
[10] = test system: RXF 393 renal

SMILES	TGI [1]	TGI [2]	TGI [3]	TGI [4]	TGI [5]	TGI [6]	TGI [7]	TGI [8]	TGI [9]	TGI [10]	GI50 [1]	GI50 [9]	GI50 [2]	GI50 [3]	GI50 [4]	GI50 [10]	GI50 [5]	GI50 [7]	GI50 [8]
Cc1c(-c2c(C)c3ccccc3n2S(=O)(=O)c2ccccc2)n(S(=O)(=O)c2ccccc2)c2ccccc12	> 100 µM	> 100 µM	> 100 µM	> 100 µM	> 100 µM	> 100 µM	> 100 µM	> 100 µM											
CCC(C)[C@H](NC(=O)N[C@H](C)c1ccccc1)C(=O)OC (stereo partly drawn)	> 100 µM	> 100 µM	> 100 µM	> 100 µM	> 100 µM	> 100 µM	> 100 µM	> 100 µM											
Cc1cnoc1NC1=CC(=O)C(=O)c2ccccc21	> 100 µM	13.9 µM	> 100 µM	44.6 µM	> 100 µM	> 100 µM	> 100 µM	90 µM	> 100 µM										
Cc1cc2c(cc1Cl)Sc1nnc(Nc3ccccc3)n1S2(=O)=O	54.6 µM	19.1 µM			22.1 µM	10.7 µM	33.8 µM	> 100 µM	57.3 µM	24.2 µM									
CCC(CCCN)Nc1cc(OC)cc2cccnc12 (stereo not drawn)	> 100 µM		> 100 µM	> 100 µM	> 100 µM	> 100 µM	> 100 µM	> 100 µM		> 100 µM									
Brc1ccc(N=NN2CCCCC2)cc1	> 100 µM	> 100 µM	> 100 µM	56.9 µM	> 100 µM	> 100 µM	> 100 µM		> 100 µM	> 100 µM									
COc1cc(OC)c2c(O)cc(CC(C)O)cc2c1 (stereo not drawn)	> 100 µM	> 100 µM	> 100 µM	> 100 µM			> 100 µM	> 100 µM		> 100 µM									
Cc1nc2ccc(S(=O)(=O)Nc3ccc(Cl)cc3)cc2c(=O)n1NC(=O)CNc1ccc(Cl)cc1	> 100 µM	> 100 µM	> 100 µM	> 100 µM	> 100 µM	> 100 µM		> 100 µM											
O=C(CSc1nc2ccccc2[nH]1)Nc1ccc(-c2nc3ccccc3s2)c(Cl)c1	4.99 µM	4.33 µM	12 µM	> 100 µM	> 100 µM		52.7 µM	> 100 µM	6.05 µM	8.85 µM	1.6 µM	1.71 µM	1.85 µM	2.72 µM	> 100 µM	2.66 µM	2.83 µM	2.22 µM	4.79 µM
CN(C)C(=S)N/N=C\C=N/NC(=S)N(C)C	> 100 µM	> 100 µM	> 100 µM		> 100 µM	> 81.9 µM	34.5 µM	> 100 µM	> 100 µM										
Cc1ccc(C(=O)N(C2CCCCC2)C2CCCCC2)cc1N=NN(C)C	32.4 µM	34.1 µM	33.5 µM	54.7 µM	22.2 µM	39.5 µM		16.6 µM	38.7 µM										
